Measured values from patent publication US20190060239A1, “Technology for the Preparation of Microparticles” (Ansun Biopharma, Inc., priority 2007, published 2019).

Tests used:
Assay type in all cases: physicochemical
[1] = Microsphere formation, size and appearance by light microscopy; conditions: for Microsphere Size (microns): 5 mg/ml protein
[2] = Cascade Impaction of vancomycin microspheres, New Generation Impactor
Description: Vancomycin was dissolved in aqueous buffer at a final concentration of 10 mg/ml. The cocktail contained 5 mM sodium citrate pH 5.0 as counterion and 15% v/v n-propanol as anti-solvent. A 2 ml aliquot of cocktail was frozen in a 10-ml lyophilization vial placed in a −80° C. freezer for 1 hour. The frozen vial was transferred onto a −45° C. lyophilizer shelf and freeze dried for 36 hours.
The microspheres prepared as described in Example 5 were tested by Cascade Impaction using a New Generation Impactor. The deposition of pharmaceuticals in the respiratory tract can be predicted by the aerodynamic behavior of particles (microspheres) on the stages/collection plates of the cascade impactor.
The microspheres (10 mg) were loaded into HPMC (hydroxypropyl methylcellulose) capsule. The capsule was placed into a CycloHaler (PharmaChemie) dry powder inhaler and subjected to cascade impaction. The collection plates of the impactor representing various areas/stages of deposition post-inhalation (trachea, primary and secondary bronchi, terminal bronchi, alveoli, etc.) were coated with silicon spray to prevent bouncing of the microspheres. The microspheres from the stages and collection plates were recovered into a phosphate buffered saline containing 0.1% Tween, and the amount of deposited vancomycin recovered from each stage and collection plate was quantified by measuring absorbance at 280 nm.

[3] = Microsphere quality score by light microscopy (scoring system of Table 13); conditions: for microsphere formation: control
Description: For each of the compounds listed in A-D above, and for DAS181, cocktail solutions containing 2 mg/ml of compound dissolved in an aqueous solvent and various counterions, antisolvents and pH, as listed below, were prepared in a 96-well microtiter plate (0.1 ml cocktail/well) at room temperature. Control solutions contained either solvent or antisolvent alone, with or without the counterion. Cocktails were cooled by placing in a freezer. The chilled plates were transferred onto pre-chilled (−45° C.) shelves of a Millrock Lab Series Lyophilizer, and the vacuum was applied. The frozen cocktail solutions were allowed to lyophilize for 16 hours.
The lyophilized powders from the bottoms of the wells were transferred onto glass slides and analyzed by light microscopy for appearance. The quality of the product microspheres was scored based on the uniformity of the microspheres, the absence of undesirable non-microsphere particles (glass-like crystalline forms), and the absence of aggregates.
Arginine was used as counterion and isopropanol was used as antisolvent. Concentrations of each of the cocktail components—the compound, the counterion and the antisolvent—were varied as shown below in Table 15, and the effect on microsphere quality assessed.
Experiments were performed to evaluate the effect of antisolvent and counterion concentration variation on the formation of microspheres. The peptides leuprolide and somatostatin, and the antibiotics vancomycin and tobramycin, were tested under a variety of conditions for forming microspheres. Samples were analyzed in 96-well plates as described in the previous Examples.
The experiments were performed using PGI2 and an analog of PGI2, Ciprostene, at a concentration of 2 mg/ml. Cocktail solutions were mixed at room temperature, then cooled by placing in a freezer. The chilled plates were transferred onto pre-chilled (−45° C.) shelves of a Millrock Lab Series Lyophilizer, and the vacuum was applied. The frozen cocktail solutions were allowed to lyophilize for 16 hours.
Because the resulting prostaglandin microspheres are hygroscopic, upon microsphere initiation, the humidity was maintained at low levels during the experiments, using a nitrogen gas tank attached to the backfill system on the lyophilizer. Each of the reaction tubes was flushed with N2. In addition, the backfill valve on the lyophilizer was left open to continually flush a low humidity atmosphere over the samples. The microscope used to visualize the resulting microspheres was contained within a plastic bag that was continually purged with dry N2. Sample tubes were placed under the bag to equilibrate for approximately 30 seconds, before opening and spreading onto the glass slide.
The compound/counterion/antisolvent conditions were as follows:
Experiments were performed with 200 μl of each of the above cocktail solutions in a 2 ml lyophilization bottle (first flash freeze condition), and 25 μl of each of the above cocktail solutions in a PCR tube (second flash freeze condition). The samples in the lyophilization bottles took approximately 15 seconds to freeze. The samples in the PCR tubes took approximately 3 seconds or less to freeze.
The cocktails in the 96-well plates were cooled by placing in a freezer. The chilled plates were transferred onto pre-chilled (−45° C.) shelves of a Millrock Lab Series Lyophilizer, and a vacuum was applied. The frozen cocktail solutions were allowed to lyophilize for 16 hours.
The lyophilized powders from the bottoms of the wells were transferred onto glass slides and analyzed by light microscopy for appearance.

Q: For Green fluorescent protein, which “Microsphere Size (microns)” value ([1]; 5 mM pivalic acid, pH 7.0, 10% 1-propanol) is on record?
A: 0.5-1.5 microns

Q: Which “Microsphere Size (microns)” value ([1]; 5 mM citrate, pH 8.0, 5% isopropanol) does the source give for Lysozyme: purchased from Sigma here?
A: 4-5 microns

Q: Which “Percent Deposition of Vancomycin” value ([2]; Capsule + device, size cut-off NA) does the source give for `CN[C@H](CC(C)C)C(=O)N[C@H]1C(=O)N[C@@H](CC(N)=O)C(=O)N[C@H]2C(=O)N[C@H]3C(=O)N[C@H](C(=O)N[C@H](C(=O)O)c4cc(O)cc(O)c4-c4cc3ccc4O)[C@H](O)c3ccc(c(Cl)c3)Oc3cc2cc(c3O[C@@H]2O[C@H](CO)[C@@H](O)[C@H](O)[C@H]2O[C@H]2C[C@](C)(N)[C@H](O)[C@H](C)O2)Oc2ccc(cc2Cl)[C@H]1O` [Vancomycin] here?
A: 37.57%

Q: What about the “Percent Deposition of Vancomycin” value ([2]; Throat, size cut-off >10 microns, oral cavity) of the same molecule?
A: 10.48%

Q: And the “Percent Deposition of Vancomycin” value ([2]; impactor component 1, size cut-off >8.06 microns, Oral cavity/pharynx)?
A: 3.33%

Q: What about the “Percent Deposition of Vancomycin” value ([2]; impactor component 2, size cut-off 4.46-8.06 microns, pharynx) of the same molecule?
A: 7.71%

Q: And the “Percent Deposition of Vancomycin” value ([2]; impactor component 3, size cut-off 2.82-4.46 microns, trachea/bronchi)?
A: 15.47%

Q: What about the “Percent Deposition of Vancomycin” value ([2]; impactor component 4, size cut-off 1.66-2.82 microns, secondary bronchi) of the same molecule?
A: 16.69%

Q: And the “Percent Deposition of Vancomycin” value ([2]; impactor component 5, size cut-off 0.94-1.66 microns, terminal bronchi/alveoli)?
A: 6.38%

Q: And the “Percent Deposition of Vancomycin” value ([2]; impactor component 6, size cut-off 0.55-0.94 microns, alveoli)?
A: 1.59%

Q: What about the “Percent Deposition of Vancomycin” value ([2]; impactor component 7, size cut-off 0.34-0.55 microns, alveoli) of the same molecule?
A: 0.51%

Q: What about the “Percent Deposition of Vancomycin” value ([2]; impactor component 8, size cut-off <0.34 microns, alveoli) of the same molecule?
A: 0.27%

Q: And the “Microsphere Quality” value ([3]; compound 2 mg/ml, Na-citrate, pH 5.0 7.5 mM, Isopropanol 5%)?
A: 9/8

Q: And the “Microsphere Quality” value ([3]; compound 2 mg/ml, Na-citrate, pH 5.0 […], Isopropanol 5%)?
A: 9/8

Q: What about the microsphere rating ([3]; pH 5) of the same molecule?
A: 9/10

Q: What about the “geometric size of microspheres” value ([1]; 10 mg/ml vancomycin, 5 mM sodium citrate pH 5.0, 15% v/v n-propanol, light microscopy) of the same molecule?
A: 1.0-3.0 microns

Q: What does the source list for `CC1(C)S[C@@H]2[C@H](NC(=O)[C@H](N)c3ccccc3)C(=O)N2[C@H]1C(=O)O` [Ampicillin]?
A: Microsphere Quality ([3]; 2 mg/ml compound, 2 mM Na-Citrate, 5% n-propanol, pH 5.0): 3/4; Microsphere Quality ([3]; 2 mg/ml compound, 2 mM Na-Glutamate, 5% n-propanol, pH 4.0): 3-5

Q: For `NC[C@H]1O[C@H](O[C@H]2[C@H](O)[C@@H](O[C@H]3O[C@H](CO)[C@@H](O)[C@H](N)[C@H]3O)[C@H](N)C[C@@H]2N)[C@H](N)C[C@@H]1O` [Tobramycin], which “Microsphere Quality” value ([3]; compound 2 mg/ml, Itaconic acid-Na, pH 4.0 2 mM, Isopropanol 0%) is on record?
A: 4/5

Q: What about the “Microsphere Quality” value ([3]; compound 2 mg/ml, Itaconic acid-Na, pH 4.0 2 mM, Isopropanol 5%) of the same molecule?
A: 7/8

Q: And the “Microsphere Quality” value ([3]; compound 2 mg/ml, Itaconic acid-Na, pH 4.0 2 mM, Isopropanol 30%)?
A: 8/9

Q: What about the “Microsphere Quality” value ([3]; compound 2 mg/ml, Itaconic acid-Na, pH 4.0 2 mM, Isopropanol 40%) of the same molecule?
A: 6/7

Q: What about the “Microsphere Quality” value ([3]; compound 2 mg/ml, Itaconic acid-Na, pH 4.0 2 mM, Isopropanol […]) of the same molecule?
A: 7/8

Q: And the “Microsphere Quality” value ([3]; compound 2 mg/ml, Itaconic acid-Na, pH 4.0 5 mM, Isopropanol 5%)?
A: Crystals

Q: What about the “Microsphere Quality” value ([3]; compound 2 mg/ml, Itaconic acid-Na, pH 4.0 10 mM, Isopropanol 5%) of the same molecule?
A: Crystals

Q: What about the “Microsphere Quality” value ([3]; compound 2 mg/ml, Itaconic acid-Na, pH 4.0 15 mM, Isopropanol 5%) of the same molecule?
A: Crystals

Q: And the “Microsphere Quality” value ([3]; compound 2 mg/ml, Itaconic acid-Na, pH 4.0 17 mM, Isopropanol 5%)?
A: Crystals

Q: And the “Microsphere Quality” value ([3]; pH 4)?
A: Crystals

Q: What does the source list for `CCCCC[C@H](O)/C=C/[C@@H]1[C@H]2C/C(=C/CCCC(=O)O)O[C@H]2C[C@H]1O` [Prostaglandin I2]?
A: Microsphere Quality ([3]; compound 2 mg/ml, 2 mM Arginine, pH 9, 20% n-propanol, 5% t-butanol): 7/8; Microsphere Quality ([3]; compound 2 mg/ml, 2 mM Arginine, pH 9, 20% n-propanol, 55% t-butanol): 5/6; Microsphere Quality ([3]; compound 2 mg/ml, 2 mM TEA, pH 11, 20% n-propanol, 5% t-butanol): 7/8; Microsphere Quality ([3]; compound 2 mg/ml, 2 mM TEA, pH 11, 30% n-propanol, 0% t-butanol): 2/3

Q: Which “Microsphere Size (microns)” value ([1]; 5 mM glycine, pH 5.0, 10% isopropanol) does the source give for Hemoglobin here?
A: 0.4-0.7 microns

Q: With `C=C(CC(=O)O)C(=O)O` [itaconic acid] as the molecule, how does the microsphere formation ([3]; no added compound: 2 mM itaconic acid buffered to pH 7, 5% isopropanol) read?
A: hygroscopic microspheres

Q: What about the microsphere formation ([3]; no added compound: 2 mM itaconic acid buffered with sodium hydroxide at pH 4, 15% isopropanol) of the same molecule?
A: microspheres were formed

Q: Which “Microsphere Quality” value ([3]; 2 mM Na-citrate, 15% isopropanol, pH 4.0) does the source give for `CCNC(=O)[C@@H]1CCCN1C(=O)[C@H](CCCNC(=N)N)NC(=O)[C@H](CC(C)C)NC(=O)[C@@H](CC(C)C)NC(=O)[C@H](Cc1ccc(O)cc1)NC(=O)[C@H](CO)NC(=O)[C@H](Cc1c[nH]c2ccccc12)NC(=O)[C@H](Cc1c[nH]cn1)NC(=O)[C@@H]1CCC(=O)N1` [leuprolide] here?
A: 5/6

B1: Trypsin: purchased from Worthington (protein, UniProt P00760 24-246, looked up)
Serine protease 1: IVGGYTCGANTVPYQVSLNSGYHFCGGSLINSQWVVSAAHCYKSGIQVRLGEDNINVVEGNEQFISASKSIVHPSYNSNTLNNDIMLIKLKSAASLNSRVASISLPTSCASAGTQCLISGWGNTKSSGTSYPDVLKCLKAPILSDSSCKSAYPGQITSNMFCAGYLEGGKDSCQGDSGGPVVCSGKLQGIVSWGSGCAQKNKPGVYTKVCNYVSWIKQTIASN
Q: With B1 as the molecule, how does the “Microsphere Size (microns)” value ([1]; 5 mM arginine, pH 8.0, 5% isopropanol) read?
A: 0.5-1 microns

B2: RNase A: purchased from Sigma (protein, UniProt P61823 27-150, looked up)
Ribonuclease pancreatic: KETAAAKFERQHMDSSTSAASSSNYCNQMMKSRNLTKDRCKPVNTFVHESLADVQAVCSQKNVACKNGQTNCYQSYSTMSITDCRETGSSKYPNCAYKTTQANKHIIVACEGNPYVPVHFDASV
Q: For B2, which “Microsphere Size (microns)” value ([1]; 5 mM citrate, pH 4.0, 5% isopropanol) is on record?
A: 0.4-1 microns

B3: Ovalbumin: purchased from Sigma (protein, UniProt P01012 2-386, looked up)
Ovalbumin: GSIGAASMEFCFDVFKELKVHHANENIFYCPIAIMSALAMVYLGAKDSTRTQINKVVRFDKLPGFGDSIEAQCGTSVNVHSSLRDILNQITKPNDVYSFSLASRLYAEERYPILPEYLQCVKELYRGGLEPINFQTAADQARELINSWVESQTNGIIRNVLQPSSVDSQTAMVLVNAIVFKGLWEKAFKDEDTQAMPFRVTEQESKPVQMMYQIGLFRVASMASEKMKILELPFASGTMSMLVLLPDEVSGLEQLESIINFEKLTEWTSSNVMEERKIKVYLPRMKMEEKYNLTSVLMAMGITDVFSSSANLSGISSAESLKISQAVHAAHAEINEAGREVVGSAEAGVDAASVSEEFRADHPFLFCIKHIATNAVLFFGRCVSP
Q: With B3 as the molecule, how does the “Microsphere Size (microns)” value ([1]; 5 mM pivalic acid, pH 4.0, 10% isopropanol) read?
A: 0.5-1 microns

B4: PIN 168 (PI8): hexahistidine-tagged human proteinase inhibitor 8 (SEQ ID NO:15) (protein, listed as Homo sapiens)
chain: MDDLCEANGTFAISLFKILGEEDNSRNVFFSPMSISSALAMVFMGAKGSTAAQMSQALCLYKDGDIHRGFQSLLSEVNRTGTQYLLRTANRLFGEKTCDFLPDFKEYCQKFYQAELEELSFAEDTEECRKHINDWVAEKTEGKISEVLDAGTVDPLTKLVLVNAIYFKGKWNEQFDRKYTRGMLFKTNEEKKTVQMMFKEAKFKMGYADEVHTQVLELPYVEEELSMVILLPDDNTDLAVVEKALTYEKFKAWTNSEKLTKSKVQVFLPRLKLEESYDLEPFLRRLGMIDAFDEAKADFSGMSTEKNVPLSKVAHKCFVEVNEEGTEAAAATAVVRNSRCSRMEPRFCADHPFLFFIRRHKTNCILFCGRFSSP
modifications: hexahistidine tag; protease inhibitor 8 (PI8) (Serpin B8)
Q: For B4, which “Microsphere Size (microns)” value ([1]; 5 mM citrate, pH 5.0, 7% isopropanol) is on record?
A: 2-5 microns
